Drawing on patent publication US20260137819A1 (Radionetics Oncology, Inc., priority 2022, published 2026), this text covers EC50 for nine compounds.

Starred links: 1 amine or outer side, 2 acyl side, 3 side chain; linkers in the order of their positions; H or OH if unused. Non-standard residues stand in square brackets, D forms with d. Residues, ends and D or L forms follow the SMILES beside them. Groups on a side chain read outwards from the residue. *: point of attachment. X1 = COc1cc2c(cc1-c1cccc(N*)c1)-c1c(c(C(=O)N3CCOCC3(C)C)nn1-c1cc(Cl)cc(Cl)c1)CO2; DOTA = O=C(O)CN1CCN(CC(=O)O)CCN(CC(=O)*)CCN(CC(=O)O)CC1; Suc = O=C(CCC(=O)[*:2])[*:1]

The target in this assay is T1, human follicle-stimulating hormone receptor (FSHR) (Homo sapiens, UniProt P23945).
T1 construct: host or cells: CHO-K1
T1 sequence (P23945 18-695): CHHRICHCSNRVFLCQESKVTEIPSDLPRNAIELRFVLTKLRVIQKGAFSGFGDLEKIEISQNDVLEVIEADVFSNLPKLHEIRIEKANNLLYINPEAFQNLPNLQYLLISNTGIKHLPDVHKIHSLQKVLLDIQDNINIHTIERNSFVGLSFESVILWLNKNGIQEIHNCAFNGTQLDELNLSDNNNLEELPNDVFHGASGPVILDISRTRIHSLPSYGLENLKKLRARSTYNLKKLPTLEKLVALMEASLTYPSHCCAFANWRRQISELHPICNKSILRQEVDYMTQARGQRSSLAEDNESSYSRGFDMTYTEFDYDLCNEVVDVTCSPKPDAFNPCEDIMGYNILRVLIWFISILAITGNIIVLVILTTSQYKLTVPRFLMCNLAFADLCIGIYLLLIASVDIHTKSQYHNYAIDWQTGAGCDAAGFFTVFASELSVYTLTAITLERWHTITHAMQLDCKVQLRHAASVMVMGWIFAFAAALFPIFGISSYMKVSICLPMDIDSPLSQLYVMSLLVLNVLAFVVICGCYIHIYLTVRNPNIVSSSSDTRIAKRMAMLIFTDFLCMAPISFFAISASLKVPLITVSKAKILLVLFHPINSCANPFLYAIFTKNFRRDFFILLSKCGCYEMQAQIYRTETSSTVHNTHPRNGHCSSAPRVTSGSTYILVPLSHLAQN
Kind of assay: Measurement of agonist cAMP production by activation of human FSHR. It is filed as cell-based. Particulars: CHO-K1 human FSHR cells, 30 minutes at 37° C., HTRF cAMP kit; read-out: hFSHR Agonist cAMP EC50. Summed up:
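cAMP output was measured by HTRF after 30 min at 37 °C agonist exposure (0–10,000 nM final) in stably FSHR-transfected CHO-K1 cells. Lysate cAMP was read off a standard curve and fitted to obtain half-maximal EC50.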
(In general: cAMP levels reflect the balance of adenylyl cyclase and phosphodiesterase activity.)
Regarding `COc1cc2c(cc1-c1cncc(OCCOCCOCCOCCOCCNC(=O)[C@H](CS(=O)(=O)O)NC(=O)CN3CCN(CC(=O)O)CCN(CC(=O)O)CCN(CC(=O)O)CC3)c1)-c1c(c(C(=O)N3CCCN(C(=O)C4CCC4)CC3)nn1-c1cccs1)CO2` [Compound 76, (R)-2,2′,2″-(10-(20-((5-(3-(4-(cyclobutanecarbonyl)-1,4-diazepane-1carbonyl)-7-methoxy-1-(thiophen-2-yl)-1,4-dihydrochromeno[4,3-c]pyrazol-8-yl)pyridin-3-yl)oxy)-2,5-dioxo-4-(sulfomethyl)-9,12,15,18-tetraoxa-3,6-diazaicosyl)-1,4,7,10-tetraazacyclododecane-1,4,7-triyl)triacetic acid], the EC50 (in general, the concentration needed to bring the measured effect to its halfway point) is 10 to 100 nM.

As to `COc1cc2c(cc1-c1cncc(OCCCNC(=O)[C@@H](CCC(=O)O)NC(=O)CCNC(=O)CN3CCN(CC(=O)O)CCN(CC(=O)O)CCN(CC(=O)O)CC3)c1)-c1c(c(C(=O)N3CCCN(C(=O)C4CCC4)CC3)nn1-c1cccs1)CO2` [Compound 77], the concentration for a half-maximal effect (EC50) fell in the range of 10 to 100 nM.

Take `COc1cc2c(cc1-c1cncc(OCCCNC(=O)[C@@H](CCCNC(=N)N)NC(=O)CCNC(=O)CN3CCN(CC(=O)O)CCN(CC(=O)O)CCN(CC(=O)O)CC3)c1)-c1c(c(C(=O)N3CCCN(C(=O)C4CCC4)CC3)nn1-c1cccs1)CO2` [Compound 78, (R)-2,2′,2″-(10-(2-((3-((1-((3-((5-(3-(4-(cyclobutanecarbonyl)-1,4-diazepane-1carbonyl)-7-methoxy-1-(thiophen-2-yl)-1,4-dihydrochromeno|4,3-c|pyrazol-8-yl)pyridin-3-yl)oxy)propyl)amino)-5-guanidino-1-oxopentan-2-yl)amino)-3-oxopropyl)amino)-2-oxoethyl)-1,4,7,10-tetraazacyclododecane-1,4,7-triyl)triacetic acid--2,2,2-trifluoroacetic acid (1/1)]: the concentration giving a half-maximal response (EC50) is under 10 nM.

As to `COc1cc2c(cc1-c1cncc(NC(=O)CCOCCOCCOCCOCCNC(=O)[C@H](CS(=O)(=O)O)NC(=O)CN3CCN(CC(=O)O)CCN(CC(=O)O)CCN(CC(=O)O)CC3)c1)-c1c(c(C(=O)N3CCOCC3(C)C)nn1-c1cc(Cl)cc(Cl)c1)CO2` [Compound 80], the EC50 is 10 to 100 nM.

For `COc1cc2c(cc1-c1cncc(NC(=O)CCCNC(=O)[C@@H](CCCNC(=N)N)NC(=O)CCNC(=O)CN3CCN(CC(=O)O)CCN(CC(=O)O)CCN(CC(=O)O)CC3)c1)-c1c(c(C(=O)N3CCOCC3(C)C)nn1-c1cc(Cl)cc(Cl)c1)CO2` [Compound 81, (R)-2,2′,2″-(10-(2-((3-((1-((4-((5-(1-(3,5-dichlorophenyl)-3-(3,3dimethylmorpholine-4-carbonyl)-7-methoxy-1,4-dihydrochromeno|4,3-clpyrazol-8-yl)pyridin-3-yl)amino)-4-oxobutyl)amino)-5-guanidino-1-oxopentan-2-yl)amino)-3-oxopropyl)amino)-2-oxoethyl)-1,4,7,10-tetraazacyclododecane-1,4,7-triyl)triacetic acid--2,2,2-trifluoroacetic acid (1/1)], the EC50 was under 10 nM.

For `COc1cc2c(cc1-c1cccc(NC(=O)CCC(=O)NCCCC[C@@H](NC(=O)[C@@H](CCC(=O)O)NC(=O)[C@@H](CCCNC(=N)N)NC(=O)[C@@H](C)NC(=O)CN3CCN(CC(=O)O)CCN(CC(=O)O)CCN(CC(=O)O)CC3)C(=O)N[C@H](CCCNC(=N)N)C(=O)N[C@H](CCC(=O)O)C(=O)N[C@H](C)C(N)=O)c1)-c1c(c(C(=O)N3CCOCC3(C)C)nn1-c1cc(Cl)cc(Cl)c1)CO2` [Compound 83, 2,2′,2″-(10-((4R,7R,10R,13R,16R,19R,22R)-23-amino-10,19-bis(2carboxyethyl)-13-(4-(4-((3-(1-(3,5-dichlorophenyl)-3-(3,3-dimethylmorpholine-4-carbonyl)-7-methoxy-1,4-dihydrochromeno|4,3-c|pyrazol-8-yl)phenyl)amino)-4-oxobutanamido)butyl)-7,16-bis(3-guanidinopropyl)-4,22-dimethyl-2,5,8,11,14,17,20,23-octaoxo-3,6,9,12,15,18,21-heptaazatricosyl)-1,4,7,10-tetraazacyclododecane-1,4,7-triyl)triacetic acid] ({DOTA}-[dA][dR][dE][dK]([Suc-X1])[dR][dE][dA]-NH2), the half-maximal effective concentration (EC50) lay within 10 to 100 nM.

As to `COc1cc2c(cc1-c1cccc(NC(=O)CCC(=O)NCCCC[C@@H](NC(=O)[C@@H](CCC(=O)O)NC(=O)[C@@H](CCCNC(=N)N)NC(=O)[C@@H](CCC(=O)O)NC(=O)[C@@H](CCCNC(=N)N)NC(=O)[C@@H](C)NC(=O)CN3CCN(CC(=O)O)CCN(CC(=O)O)CCN(CC(=O)O)CC3)C(=O)N[C@H](C)C(N)=O)c1)-c1c(c(C(=O)N3CCOCC3(C)C)nn1-c1cc(Cl)cc(Cl)c1)CO2` [Compound 84, 2,2′,2″-(10-((4R,7R,10R,13R,16R,19R)-19-(((R)-1-amino-1-oxopropan-2yl)carbamoyl)-10,16-bis(2-carboxyethyl)-28-((3-(1-(3,5-dichlorophenyl)-3-(3,3-dimethylmorpholine-4-carbonyl)-7-methoxy-1,4-dihydrochromeno|4,3-clpyrazol-8-yl)phenyl)amino)-7,13-bis(3-guanidinopropyl)-4-methyl-2,5,8,11,14,17,25,28-octaoxo-3,6,9,12,15,18,24-heptaazaoctacosyl)-1,4,7,10-tetraazacyclododecane-1,4,7-triyl)triacetic acid] ({DOTA}-[dA][dR][dE][dR][dE][dK]([Suc-X1])[dA]-NH2), the half-maximal effective concentration (EC50) is 10 to 100 nM.

Take `COc1cc2c(cc1-c1cccc(NC(=O)CCC(=O)NCCCC[C@@H](NC(=O)[C@@H](CO)NC(=O)[C@@H](CC(N)=O)NC(=O)[C@@H](CO)NC(=O)[C@@H](CC(N)=O)NC(=O)[C@@H](C)NC(=O)CN3CCN(CC(=O)O)CCN(CC(=O)O)CCN(CC(=O)O)CC3)C(=O)N[C@H](C)C(N)=O)c1)-c1c(c(C(=O)N3CCOCC3(C)C)nn1-c1cc(Cl)cc(Cl)c1)CO2` [Compound 85] ({DOTA}-[dA][dN][dS][dN][dS][dK]([Suc-X1])[dA]-NH2): the half-maximal effective concentration (EC50) was 10 to 100 nM.

With `COc1cc2c(cc1-c1cccc(NC(=O)CCC(=O)NCCCC[C@@H](NC(=O)[C@@H](C)NC(=O)[C@@H](CCC(=O)O)NC(=O)[C@@H](C)NC(=O)CN3CCN(CC(=O)O)CCN(CC(=O)O)CCN(CC(=O)O)CC3)C(=O)N[C@H](C)C(=O)N[C@H](CCC(=O)O)C(=O)N[C@H](C)C(N)=O)c1)-c1c(c(C(=O)N3CCOCC3(C)C)nn1-c1cc(Cl)cc(Cl)c1)CO2` [Compound 86, (4R,7R,10R,13R,16R)-4-(((R)-1-amino-1-oxopropan-2-yl)carbamoyl)-10-(4-(4((3-(1-(3,5-dichlorophenyl)-3-(3,3-dimethylmorpholine-4-carbonyl)-7-methoxy-1,4-dihydrochromeno|4,3-clpyrazol-8-yl)phenyl)amino)-4-oxobutanamido)butyl)-7,13-dimethyl-6,9,12,15-tetraoxo-16-((R)-2-(2-(4,7,10-tris(carboxymethyl)-1,4,7,10-tetraazacyclododecan-1-yl)acetamido)propanamido)-5,8,11,14-tetraazanonadecanedioic acid] ({DOTA}-[dA][dE][dA][dK]([Suc-X1])[dA][dE][dA]-NH2), the EC50 fell in the range of 10 to 100 nM.
